Calls of active or inactive are those of the source. The calls are words filed in the database; no cut-off is given here.
Experiments:
Assay type in all cases: cell-based
[1] = molecular target: T1, Peroxisome proliferator-activated receptor gamma (Homo sapiens) (UniProt P37231); experiment: Agonist activity at Gal4-tagged human PPARgamma expressed in HEK293 cells at 3 to 30 uM incubated for 16 to 20 hrs by luciferase and beta-galactosidase activity based reporter gene assay
T1 sequence (whole entry): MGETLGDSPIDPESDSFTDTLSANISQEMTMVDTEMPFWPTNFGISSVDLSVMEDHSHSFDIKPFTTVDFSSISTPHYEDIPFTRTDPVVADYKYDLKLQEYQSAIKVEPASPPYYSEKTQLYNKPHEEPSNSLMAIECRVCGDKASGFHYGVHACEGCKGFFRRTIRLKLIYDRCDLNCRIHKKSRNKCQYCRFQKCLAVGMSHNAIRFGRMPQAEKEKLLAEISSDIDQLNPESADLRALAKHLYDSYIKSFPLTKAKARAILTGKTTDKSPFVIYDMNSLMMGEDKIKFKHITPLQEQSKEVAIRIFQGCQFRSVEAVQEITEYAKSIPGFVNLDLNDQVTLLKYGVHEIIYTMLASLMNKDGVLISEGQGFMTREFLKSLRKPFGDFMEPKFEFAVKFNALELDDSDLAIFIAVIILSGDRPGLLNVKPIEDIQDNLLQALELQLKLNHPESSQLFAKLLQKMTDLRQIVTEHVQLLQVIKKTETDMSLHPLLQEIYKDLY

[2] = molecular target: T2, Peroxisome proliferator-activated receptor delta (Homo sapiens) (UniProt Q03181); experiment: Agonist activity at Gal4-tagged human PPARdelta expressed in HEK293 cells at 3 to 30 uM incubated for 16 to 20 hrs by luciferase and beta-galactosidase activity based reporter gene assay
T2 sequence (whole entry): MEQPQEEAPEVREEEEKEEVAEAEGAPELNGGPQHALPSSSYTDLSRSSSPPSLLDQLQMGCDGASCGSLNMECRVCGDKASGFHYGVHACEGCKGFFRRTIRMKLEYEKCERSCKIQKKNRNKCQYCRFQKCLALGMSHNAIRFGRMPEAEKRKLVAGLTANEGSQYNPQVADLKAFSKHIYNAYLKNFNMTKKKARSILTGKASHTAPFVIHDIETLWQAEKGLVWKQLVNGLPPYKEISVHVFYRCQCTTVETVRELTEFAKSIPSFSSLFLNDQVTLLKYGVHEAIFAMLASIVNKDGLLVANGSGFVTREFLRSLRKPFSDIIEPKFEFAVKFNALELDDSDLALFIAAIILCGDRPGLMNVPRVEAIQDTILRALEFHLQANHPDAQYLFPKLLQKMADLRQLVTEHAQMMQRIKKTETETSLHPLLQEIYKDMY

[3] = molecular target: T3, Peroxisome proliferator-activated receptor alpha (Homo sapiens) (UniProt Q07869); experiment: Agonist activity at Gal4-tagged human PPARalpha expressed in HEK293 cells at 3 to 30 uM incubated for 16 to 20 hrs by luciferase and beta-galactosidase activity based reporter gene assay
T3 sequence (whole entry): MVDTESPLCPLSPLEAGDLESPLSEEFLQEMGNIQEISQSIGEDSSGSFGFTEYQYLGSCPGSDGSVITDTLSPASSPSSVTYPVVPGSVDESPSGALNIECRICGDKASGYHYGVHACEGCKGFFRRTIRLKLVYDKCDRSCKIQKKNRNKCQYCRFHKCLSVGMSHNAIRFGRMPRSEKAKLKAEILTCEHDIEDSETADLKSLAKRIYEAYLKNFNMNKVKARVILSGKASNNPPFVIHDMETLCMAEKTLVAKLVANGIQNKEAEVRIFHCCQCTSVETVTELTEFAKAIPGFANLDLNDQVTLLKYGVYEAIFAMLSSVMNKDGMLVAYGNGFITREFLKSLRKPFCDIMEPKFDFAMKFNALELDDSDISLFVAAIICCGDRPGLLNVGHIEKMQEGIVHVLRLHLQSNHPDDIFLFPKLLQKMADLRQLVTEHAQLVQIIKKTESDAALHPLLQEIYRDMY

HEK293 = experiment: Toxicity against HEK293 cells assessed as reduction in cell viability at 30 uM; settings: human, hek293, 30 µM

Row | SMILES | Activity [1] | Activity [2] | Activity [3] | Activity (HEK293)
1 | CCCCCCCC[Si](CCCC)(CCCC)CCCCCCCC(=O)NCCO | inactive | inactive | inactive | 
2 | CCCCCCCCCCCCCCCCCC(=O)NCCO | inactive |  | inactive | 
3 | CCCCCCCC[Si](CC)(CC)CCCCCCC(=O)NCCO | inactive | inactive | inactive | 
4 | CCCCCCC[Si](CC)(CC)CCCCCCCC(=O)NCCO | inactive | Active | inactive | Toxic
5 | CCCCCCCC[Si](C)(C)CCCCCCCC(=O)NCCO | inactive | Active | Active | 
6 | CCCCCCCC[Si](CC)(CC)CCCCCCCC(=O)NCCO | inactive | Active | Active | 
7 | CCCCCCCC[Si](CCC)(CCC)CCCCCCCC(=O)NCCO | inactive | Active | Active | 
8 | CCCCCCCC/C=C\CCCCCCCC(=O)NCCO |  |  | Active | 

— ChEMBL document CHEMBL3600336, “Design and synthesis of silicon-containing fatty acid amide derivatives as novel peroxisome proliferator-activated receptor (PPAR) agonists” (Bioorg Med Chem Lett, 2015)
